We go through 29 compounds from ChEMBL document CHEMBL1123774, “Peptide quantitative structure-activity relationships, a multivariate approach” (J Med Chem, 1987).

Structures are written as SMILES. Peptide text beside a SMILES is read from it.

A short description of the experiment: Bradykinin potentiating activity was determined as the activity index by PLS model.
Take `C[C@H](N)C(=O)N[C@@H](C)C(=O)N[C@@H](C)C(=O)N[C@@H](C)C(=O)N[C@@H](C)C(=O)O`: the Log RAI is -0.1. Regarding `C[C@H](N)C(=O)N[C@@H](C)C(=O)N[C@@H](Cc1ccc(O)cc1)C(=O)N[C@@H](C)C(=O)N[C@@H](C)C(=O)O`, the Log RAI was found to be 0.46. Consider `C[C@H](N)C(=O)N[C@@H](C)C(=O)N[C@@H](Cc1c[nH]c2ccccc12)C(=O)N[C@@H](C)C(=O)N[C@@H](C)C(=O)O` (H-AAWAA-OH), for which the Log RAI turned out to be 0.75. The figure for `C[C@H](NC(=O)[C@H](Cc1c[nH]c2ccccc12)NC(=O)[C@H](CCCCN)NC(=O)[C@@H](N)CCC(=O)O)C(=O)N1CCC[C@H]1C(=O)O` (H-EKWAP-OH) is 1.3; for `C[C@H](NC(=O)[C@H](C)NC(=O)[C@H](CCC(=O)O)NC(=O)[C@@H](N)Cc1ccccc1)C(=O)N[C@@H](CCCCN)C(=O)O` (H-FEAAK-OH) it is 0.3. `NC(N)=NCCC[C@H](NC(=O)[C@H](Cc1ccccc1)NC(=O)[C@@H]1CCCN1C(=O)[C@H](CO)NC(=O)[C@@H](N)Cc1ccccc1)C(=O)O` (H-FSPFR-OH): the Log RAI is 0.64. For the compound `C[C@H](NC(=O)[C@H](C)NC(=O)[C@H](CCC(=O)O)NC(=O)CN)C(=O)N[C@@H](CCCCN)C(=O)O` (H-GEAAK-OH), the Log RAI is -0.52. `CC(C)C[C@H](N)C(=O)N[C@@H](CCC(=O)O)C(=O)N[C@@H](C)C(=O)N[C@@H](C)C(=O)N[C@@H](CCCCN)C(=O)O` (H-LEAAK-OH): the Log RAI came to 0.4.

As to `O=C(CNC(=O)[C@@H]1CCCN1)N[C@@H](Cc1ccccc1)C(=O)N[C@@H](CO)C(=O)N1CCC[C@H]1C(=O)O` (H-PGFSP-OH), the Log RAI worked out at 0.9.

On to `C[C@H](NC(=O)[C@H](Cc1c[nH]c2ccccc12)NC(=O)[C@H](CCCCN)NC(=O)[C@@H](N)CCCN=C(N)N)C(=O)N1CCC[C@H]1C(=O)O` (H-RKWAP-OH), for which the Log RAI is 1.98.

For `CC(C)[C@H](N)C(=O)N[C@@H](C)C(=O)N[C@@H](C)C(=O)N[C@@H](C)C(=O)N[C@@H](CCCCN)C(=O)O` (H-VAAAK-OH), the Log RAI is -0.1.

As for `CC(C)[C@H](N)C(=O)N[C@@H](C)C(=O)N[C@@H](C)C(=O)N[C@@H](Cc1c[nH]c2ccccc12)C(=O)N[C@@H](CCCCN)C(=O)O` (H-VAAWK-OH), the Log RAI was determined as 0.23. Consider `CC(C)[C@H](N)C(=O)N[C@@H](C)C(=O)N[C@@H](Cc1c[nH]c2ccccc12)C(=O)N[C@@H](C)C(=O)N[C@@H](C)C(=O)O` (H-VAWAA-OH), for which the Log RAI is 1.43. The figure for `CC(C)[C@H](N)C(=O)N[C@@H](C)C(=O)N[C@@H](Cc1c[nH]c2ccccc12)C(=O)N[C@@H](C)C(=O)N[C@@H](CCCCN)C(=O)O` (H-VAWAK-OH) is 1.45; for `CC(C)[C@H](N)C(=O)N[C@@H](CCC(=O)O)C(=O)N[C@@H](C)C(=O)N[C@@H](C)C(=O)N[C@@H](CCCCN)C(=O)O` (H-VEAAK-OH) it is 0.51; for `CC(C)[C@H](N)C(=O)N[C@@H](CCC(=O)O)C(=O)N[C@@H](C)C(=O)N[C@@H](C)C(=O)N1CCC[C@H]1C(=O)O` (H-VEAAP-OH) it is 0.18. The figure for `CC(C)[C@H](N)C(=O)N[C@@H](CCC(=O)O)C(=O)N[C@@H](C)C(=O)N[C@@H](CO)C(=O)N[C@@H](CCCCN)C(=O)O` (H-VEASK-OH) is 0.2; for `CC(C)[C@H](N)C(=O)N[C@@H](CCC(=O)O)C(=O)N[C@@H](Cc1ccccc1)C(=O)N[C@@H](C)C(=O)N[C@@H](CCCCN)C(=O)O` (H-VEFAK-OH) it is 1.57.

`CC(C)[C@H](N)C(=O)N[C@@H](CCC(=O)O)C(=O)NCC(=O)NCC(=O)N[C@@H](CCCCN)C(=O)O` (H-VEGGK-OH): the Log RAI is -1.

As to `CC(C)[C@H](N)C(=O)N[C@@H](CCC(=O)O)C(=O)N[C@@H](Cc1c[nH]cn1)C(=O)N[C@@H](C)C(=O)N[C@@H](CCCCN)C(=O)O` (H-VEHAK-OH), the Log RAI stood at 1.53. The value for `CC(C)C[C@H](NC(=O)[C@H](CCC(=O)O)NC(=O)[C@@H](N)C(C)C)C(=O)N[C@@H](C)C(=O)N[C@@H](CCCCN)C(=O)O` (H-VELAK-OH) was 0.59; that for `CC(C)[C@H](N)C(=O)N[C@@H](CCC(=O)O)C(=O)N[C@@H](CO)C(=O)N[C@@H](C)C(=O)N[C@@H](CCCCN)C(=O)O` (H-VESAK-OH) was 0.28; that for `CC(C)[C@H](N)C(=O)N[C@@H](CCC(=O)O)C(=O)N[C@@H](CO)C(=O)N[C@@H](CO)C(=O)N[C@@H](CCCCN)C(=O)O` (H-VESSK-OH) was 0. Regarding `CC(C)[C@H](N)C(=O)N[C@@H](CCC(=O)O)C(=O)N[C@@H](Cc1c[nH]c2ccccc12)C(=O)N[C@@H](C)C(=O)N[C@@H](CCCCN)C(=O)O` (H-VEWAK-OH), the Log RAI turned out to be 2.73.

Consider `CC(C)[C@H](N)C(=O)N[C@@H](CCC(=O)O)C(=O)N[C@@H](Cc1c[nH]c2ccccc12)C(=O)N[C@H](C(=O)N[C@@H](CCCCN)C(=O)O)C(C)C` (H-VEWVK-OH), for which the Log RAI amounted to 1.71. For the compound `CC(C)[C@H](N)C(=O)N[C@@H](CCCCN)C(=O)N[C@@H](C)C(=O)N[C@@H](C)C(=O)N[C@@H](CCCCN)C(=O)O` (H-VKAAK-OH), the Log RAI stood at 0.11. The value for `CC(C)[C@H](N)C(=O)N[C@@H](CCCCN)C(=O)N[C@@H](Cc1c[nH]c2ccccc12)C(=O)N[C@@H](C)C(=O)N[C@@H](C)C(=O)O` (H-VKWAA-OH) was 1.71; that for `CC(C)[C@H](N)C(=O)N[C@@H](CCCCN)C(=O)N[C@@H](Cc1c[nH]c2ccccc12)C(=O)N[C@@H](C)C(=O)N1CCC[C@H]1C(=O)O` (H-VKWAP-OH) was 2.35.

As for `CC(C)[C@H](N)C(=O)N[C@@H](Cc1c[nH]c2ccccc12)C(=O)N[C@@H](C)C(=O)N[C@@H](C)C(=O)N[C@@H](CCCCN)C(=O)O` (H-VWAAK-OH), the Log RAI came out at 0.04.
